In patent US6534523B1, “Hepatitis C inhibitor tri-peptides” (Boehringer Ingelheim (Canada) Ltd., priority 1998, dated 2003):

Target: T1, HCV NS3 protease type 1b / NS4A cofactor peptide (Hepatitis C virus genotype 1b, UniProt P26663)
T1 construct: recombinant HCV NS3 protease (amino acid 1027 to 1206) was cloned in the pET11d bacterial expression vector; made in house; host or cells: E. coli BL21(DE3)pLysS
Assay: Recombinant HCV NS3 protease/NS4A cofactor peptide radiometric assay (Example 37)
Assay type: biochemical, HCV genotype 1b
Procedure: Recombinant HCV NS3 Protease/NS4A Cofactor Peptide Radiometric Assay
The enzyme was cloned, expressed and prepared according to the protocol described in Example 36. The enzyme was stored at −80° C., thawed on ice and diluted just prior to use in the assay buffer containing the NS4A cofactor peptide.
The substrate used for the NS3 protease/NS4A cofactor peptide radiometric assay, DDIVPC-SMSYTW, is cleaved between the cysteine and the serine residues by the enzyme. The sequence DDIVPC-SMSYTW corresponds to the NS5A/NS5B natural cleavage site in which the cysteine residue in P2 has been substituted for a proline. The peptide substrate DDIVPC-SMSYTW and the tracer biotin-DDIVPC-SMS[^125I-Y]TW are incubated with the recombinant NS3 protease and the NS4A peptide cofactor […] (molar ratio enzyme:cofactor 1:100) in the absence or presence of inhibitors. The separation of substrate from products is performed by adding avidin-coated agarose beads to the assay mixture followed by filtration. The amount of SMS[^125I-Y]TW product found in the filtrate allows for the calculation of the percentage of substrate conversion and of the percentage of inhibition.
Tris and Tris-HCl (UltraPure) were obtained from Gibco-BRL. […]
The filtrates were counted on a Packard TopCount instrument using a ^125I-liquid protocol for 1 minute.
The % inhibition was calculated with the following equation: […]

T1 sequence (P26663 1027-1206, other chains not shown): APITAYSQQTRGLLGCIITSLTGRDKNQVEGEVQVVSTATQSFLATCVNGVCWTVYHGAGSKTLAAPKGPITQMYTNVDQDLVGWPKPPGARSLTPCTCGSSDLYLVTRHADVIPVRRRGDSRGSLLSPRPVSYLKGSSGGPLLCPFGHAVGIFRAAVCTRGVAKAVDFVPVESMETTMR

## C=C[C@@H]1C[C@]1(NC(=O)[C@@H]1C[C@@H](Oc2cc(-c3ccccc3)nc3cc(OC)ccc23)CN1C(=O)[C@@H](NC(=O)OC(C)(C)C)C(C)C)C(=O)O [compound 601]
  IC50: 0.05 µM
